According to patent US10478511B2, “Therapeutic agent for tauopathy and method for screening thereof” (National Center for Geriatrics and Gerontology, priority 2014, dated 2019):

Experiments:
human tau protein = biological target: T1, human tau protein (Homo sapiens, UniProt P10636); assay: Quantification of aggregated tau in brain of Drosophila expressing human tau in neurons (elav/Y; hTau/+); type: in vivo; conditions: hTau/+ flies, 1 mM in food, bred 1 month, versus non-administration group (100%), FIG. 4
T1 construct: expressed in transfected cells; host or cells: transgenic Drosophila (GAL4-UAS; gmr-gal4 compound eyes or elav^C155-gal4 neurons), fly heads
Protocol: Thereafter, the recovered heads were cryopreserved at −80° C. […] The obtained supernatant was recovered in another ultracentrifuge tube.
Using the screening system established in 3 above, the tau protein aggregation-inhibiting effect of rose bengal, which is a fluorone dye, was evaluated. […] Thereafter, the accumulation of aggregated tau in brain was quantified according to the procedures in (2) above.

[1] = test system: Drosophila expressing human tau in neurons (elav/Y; hTau/+); assay: Motor function (climbing assay, negative gravitaxis) of Drosophila expressing human tau in neurons; type: in vivo; conditions: 1 mM in food, versus non-administration group, FIG. 5
Protocol: (§1) Male F1 Drosophila one to three days after emergence were bred under an environment consisting of a temperature of 25±3° C., a humidity of 60±10%, and a light-dark cycle of 12 hours. […] The flies were transferred into a vial filled with fresh food once every two weeks.
The motor function of Drosophila of was measured by performing climbing assay and evaluating negative gravitaxis. The climbing assay was carried out under the following conditions. Drosophila was transferred into an empty vial containing no food, and the vial was then hit, so that flies fell to the bottom. Thereafter, the movement of the flies climbing up the wall was captured on video. The flies, which were below the line drawn at the position 3 cm from the bottom 10 seconds after they had fallen to the bottom, were defined as “flies that could not climb”, and flies, which were above the aforementioned line, were defined as “flies that could climb”. The number of flies of each type was counted. The total number of flies in the vial was set at 100%, and the percentage of the flies that could climb was calculated.

wild-type Drosophila [2] = assay: Survival rate of wild-type Drosophila; conditions: wild-type flies, 1 mM in food, versus non-administration group, FIG. 7
Protocol: as §1
Drosophila were bred under the conditions described in (1) above, and the number of surviving flies was counted every three days, and the survival rate was then calculated.
As a control, the Drosophila in the non-administration group was used.

tau proteins = conditions: tauopathy model mice, Non-Patent Document 3; cited from earlier work
wild-type Drosophila [3] = conditions: in vivo
Protocol: as §1

[4] = test system: Drosophila expressing human tau in mushroom body neurons (mb/Y; hTau/+); assay: Olfactory memory (discrimination learning test with odor and electric shock) of Drosophila expressing human tau in mushroom body neurons; type: in vivo; conditions: hTau/+ flies, administered over 1 week, versus non-administration, FIG. 9
Protocol: as §1

T1 sequence (P10636 1-441 isoform P10636-8): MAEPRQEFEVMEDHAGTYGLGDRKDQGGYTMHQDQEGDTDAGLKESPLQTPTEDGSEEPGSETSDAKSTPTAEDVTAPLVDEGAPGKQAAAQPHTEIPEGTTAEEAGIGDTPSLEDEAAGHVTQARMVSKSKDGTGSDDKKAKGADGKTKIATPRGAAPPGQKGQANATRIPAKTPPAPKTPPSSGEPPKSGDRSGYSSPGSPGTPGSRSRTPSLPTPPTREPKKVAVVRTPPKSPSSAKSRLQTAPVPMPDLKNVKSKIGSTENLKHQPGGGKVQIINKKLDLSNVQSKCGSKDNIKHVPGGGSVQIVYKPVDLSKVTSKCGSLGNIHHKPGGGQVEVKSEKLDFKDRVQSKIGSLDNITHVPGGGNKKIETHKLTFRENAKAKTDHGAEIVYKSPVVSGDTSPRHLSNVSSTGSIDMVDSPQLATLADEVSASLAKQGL

Row | SMILES | accumulated amount of aggregated tau in brain (human tau protein) | motor function (percentage of flies that could climb) [1] | survival rate (wild-type Drosophila [2]) | accumulation of tau proteins in the brains (tau proteins) | olfactory memory (wild-type Drosophila [3]) | olfactory memory [4]
1 | CN(C)c1ccc2nc3ccc(=[N+](C)C)cc-3sc2c1 [methylene blue] | reduction | recovered | significantly reduced |  |  | 
2 | O=C1NC(=O)C(=O)C(=O)N1 [alloxan] |  |  |  | reduced |  | 
3 | O=C([O-])c1c(Cl)c(Cl)c(Cl)c(Cl)c1-c1c2cc(I)c(=O)c(I)c-2oc2c(I)c([O-])c(I)cc12.[Na+].[Na+] [rose bengal] | reduction | recovered |  |  | no significant change | significantly improved
